The structures appear in SMILES notation.

By IC50 is commonly meant the concentration at which inhibition is half-maximal.

For the experiment, the target named is T1, LapD (c-di-GMP receptor) with LapG (periplasmic protease, read-out) (Pseudomonas fluorescens, UniProt Q3KK31).
T1 construct: full-length native LapD and LapG in clarified Pf0-1 cell extracts; LapD mutants from plasmid pMQ72 in the lapD deletion strain; with Periplasmic cysteine protease LapG (transglutaminase-like cysteine peptidase, DUF920)
T1 sequence (Q3KK31 1-648): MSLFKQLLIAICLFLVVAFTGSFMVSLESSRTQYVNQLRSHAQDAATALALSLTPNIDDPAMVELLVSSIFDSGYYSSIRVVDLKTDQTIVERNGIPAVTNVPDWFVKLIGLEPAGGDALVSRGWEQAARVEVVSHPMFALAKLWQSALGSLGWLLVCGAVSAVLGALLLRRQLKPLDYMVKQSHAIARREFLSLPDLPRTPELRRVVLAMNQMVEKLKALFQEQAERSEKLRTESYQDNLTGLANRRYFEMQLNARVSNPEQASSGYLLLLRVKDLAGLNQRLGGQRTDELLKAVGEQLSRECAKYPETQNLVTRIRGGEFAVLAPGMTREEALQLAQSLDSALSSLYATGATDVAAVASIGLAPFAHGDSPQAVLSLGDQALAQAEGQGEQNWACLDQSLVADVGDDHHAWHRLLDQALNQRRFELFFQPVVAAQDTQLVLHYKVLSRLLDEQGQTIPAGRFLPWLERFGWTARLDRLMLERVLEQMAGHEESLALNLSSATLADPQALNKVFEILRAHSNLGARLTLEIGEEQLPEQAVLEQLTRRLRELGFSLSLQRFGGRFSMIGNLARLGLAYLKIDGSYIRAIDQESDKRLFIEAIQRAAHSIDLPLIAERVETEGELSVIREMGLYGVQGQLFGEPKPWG
T1 sequence (Q3KK32 50-251 partner): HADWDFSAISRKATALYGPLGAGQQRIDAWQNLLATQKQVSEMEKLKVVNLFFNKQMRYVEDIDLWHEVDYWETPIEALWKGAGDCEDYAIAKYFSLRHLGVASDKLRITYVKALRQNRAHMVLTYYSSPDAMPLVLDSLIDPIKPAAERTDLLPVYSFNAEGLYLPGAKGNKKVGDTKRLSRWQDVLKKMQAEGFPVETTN
Description: inhibition of LapG cleavage of N-Term-LapA in cell extract, anti-His Western blot densitometry. It is filed as biochemical. The note with it: LapD-dependent: c-di-GMP binds LapD EAL domain, not LapG; wild-type Pf0-1 extract; 30 pmol N-Term-LapA, 100 min, room temperature. In general terms: Immunoblotting shows a protein as a band on a membrane.

With `Nc1nc2c(ncn2[C@@H]2O[C@@H]3CO[P@](=O)(O)O[C@H]4[C@@H](O)[C@H](n5cnc6c(=O)[nH]c(N)nc65)O[C@@H]4CO[P@](=O)(O)O[C@H]3[C@H]2O)c(=O)[nH]1` [c-di-GMP], the IC50 came to 2300 ± 1100 nM.

The values above are taken from publication PMC3032545, “A c-di-GMP Effector System Controls Cell Adhesion by Inside-Out Signaling and Surface Protein Cleavage” (PLoS Biology, 2011).
